Laboratory results as given in US9688989B2, “H4 receptor inhibitors for treating tinnitus” (SENSORION, priority 2012, dated 2017).

How the values were obtained:
[1] = system: tinnitus induced by sodium salicylate or noise exposure; assay: Gap-Prepulse Inhibition of Acoustic Startle (GPIAS) behavioral model of tinnitus; format: in vivo, adult rats; conditions: rats, single i.p. administration, versus pre-treatment or vehicle
Method: The aim of these in vivo tests is to measure the efficacy of H4R antagonists to decrease (transient and permanent) tinnitus symptoms induced either by sodium salicylate or by high level noise exposure. Evaluation of efficacy is performed in adult rats using the tinnitus test developed by Turner et al. 2006: the Gap-Prepulse Inhibition of Acoustic Startle (GPIAS) behavioral model. This model uses a gap in a constant acoustic background as a pre-stimulus that reduces the acoustic startle reflex amplitude. Rats perceiving tinnitus in a specific frequency have decreased detection of gap embedded in bands similar to the tinnitus frequency. Reduction of the gating efficiency of the gap produces a larger acoustic startle (reduced GPIAS). The level of GPIAS is measured in baseline condition in a cohort of 6 to 8 adult rats. Tinnitus is induced by an i.p administration of sodium salicylate (250 mg/kg) and GPIAS is measured at […] post-induction to measure the reduction in GPIAS (attesting presence of tinnitus). Rats are treated with H4R antagonists (single i.p. administration) or with the vehicle the same day and GPIAS is measured at different time points according to the PK profile of the compounds Alternatively, tinnitus is induced by a unilateral exposure to a 12 kHz narrow band noise presented at 120-126 dB SPL (the contralateral ear is protected with an ear plug) for 2h. […]

[2] = system: spiral ganglion neurons (SGNs) in semi-intact cochlea preparation; assay: Loose-patch recordings of spontaneous action potentials in semi-intact cochlea preparation; format: cell-based, Wistar rats; conditions: 100 μM bath application, within two minutes, two experiments
Method: For this preparation postnatal day (P) 10-14 Wistar rats were used. First steps of the protocol were similar to the cell culture one until the cochlea was freed from the cochlear bone. Cochlear turns (apical and middle) were dissected and isolated in sterile-filtered L-15 (Leibovitz) Medium. Explants were plated upside down (spiral ganglion neurons on top) on 10 μl of growth factor-reduced Matrigel (BD biosciences) and laminin (10 μg/ml)-coated glass coverslips. These preparations were first incubated for 30 min at 37° C. in a 95%/5% 02/CO2 atmosphere and then cultured for 2 to 5 days in vitro in (50%) F12/(50%) DMEM (Invitrogen) supplemented with (2%) N2 nutrient (Fisher Scientific). […]
All experiments were performed using an Axopatch 200B amplifier. […] Data were stored with PClamp10.2 software (Axon Instruments; Molecular Devices Corp., USA) and were analyzed off-line using Clampfit 10.2 (Molecular Devices) and Origin 8 (OriginLab) softwares.
The recording solution contained (in mM): NaCl 135, HEPES 10, glucose 10, MgCl2 1, KCl 5, and CaCl2 2.5, (pH 7.35). […] For these solutions a minor 3.7 mV liquid junction potential could be measured but membrane voltages were not corrected for it. […]
In these semi-intact cochlea preparations, spontaneous discharges of action potential were directly recorded. […] In vitro results were expressed as means±S.E.M. […]

[3] = system: spiral ganglion neurons (SGNs); assay: Whole-cell current-clamp recordings of step-evoked action potentials in dissociated spiral ganglion neurons; format: cell-based, Wistar rats; conditions: for inhibition at 0.1 µM / inhibition at 100 µM: Rattus norvegicus, Neuron, read-out: inhibition of frequency of A.P firing; for inhibition at 0.1 µM / resting membrane potential, difference versus control: 100 nM; for amplitude of the first spike / frequency of spikes and amplitude of the first spike: transient spikers SGNs; for inhibition at 100 µM / amplitude of the first spike: 100 μM; for frequency of spikes and amplitude of the first spike: all concentration tested
Method: The head of 5-8 days old Wistar rats (CERJ, Le Genest, Berthevin, France) was hemi-sectioned aseptically and the cochlea dissected from the temporal bone. In L15 (Leibovitz) medium (Gibco) medium, the cochlear bone was gently removed using fine forceps to isolate the sensorineural tissue. The spiral ganglion was separated from the organ of Corti just before the habenula perforata, and enzymatically (collagenase 0.75 mg·mL^−1, dispase 1 mg·mL^−1 and DNAse 0.75 mg·mL^−1) dissociated for 15 min at 25° C. After washing thoroughly with a Tyrode's solution (Sigma), a transfer pipette was used to gently dissociate the ganglion neurons in culture medium (DMEM/F-12 medium 1:1, 2% N2 nutrient, 28 mM Glc, 1.5 mM Gln, 15 mM HEPES, 2 μM AraC, 10 ng mL-1 BDNF and 1% penicillin/streptomycin). The spiral ganglion neurons were plated onto culture dishes previously coated with 10 ug·mL-1 laminin (Sigma). These low density cultures were maintained at 37° C. in 5% CO2 for 3 to 5 days prior whole cell patch-clamp experiments.
Efficacy of H4R antagonist has been tested using two patch clamp technics: whole-cell current-clamp recordings with dissociated spiral ganglion neurons (SGNs) and loose-patch recordings for SGNs in semi-intact cochlea preparations. For these experiments postnatal day (P) 10-14 Wistar rats were used at DIV2-5.
All experiments were performed using an Axopatch 200B amplifier. Traces were low-pass filtered at 10-20 kHz, and digitized at 100 kHz with a Digidata 1440A board. Data were stored with PClamp10.2 software (Axon Instruments; Molecular Devices Corp., USA) and were analyzed off-line using Clampfit 10.2 (Molecular Devices) and Origin 8 (OriginLab) softwares.
The recording solution contained (in mM): NaCl 135, HEPES 10, glucose 10, MgCl2 1, KCl 5, and CaCl2 2.5, (pH 7.35). For whole-cell patch clamp recordings, recording glass pipettes (4-6 MΩ) were coated with Wax to reduce pipette capacitance and were filled with (in mM): KCl 135, HEPES 10, glucose 10, NaCl 5, EGTA 5, Mg-ATP 3, GTP-Na 1, pH 7.35. For these solutions a minor 3.7 mV liquid junction potential could be measured but membrane voltages were not corrected for it. The osmolarity of all solutions was adjusted to 300 mOsm/L. The control and test solutions were applied using a multiple capillary perfusion system (flow rate˜500 μl/min). After each application of the tested drug, the cells were washed with control buffer.
Recordings were performed at room temperature (RT; 22-25° C.). In dissociated neurons, a 150-200 pA DC square current (1 s duration) was applied every 6 s in order to elicit trains of action potentials. The pharmacological tests were conducted only when recordings presented the following criteria: series resistance (<10 MΩ on average) no more than 3 times the pipette resistance, stable resting membrane potential (R.M.P) negative to −40 mV, overshooting action potentials (magnitude >60 mV for the first action potential), stable firing for up to a minute in control condition.
Two concentrations have been tested: 100 μM and 100 nM.
Typically, in dissociated SGNs, (FIG. 2A1) small depolarizing current steps (0.1 nA-0.4 nA) evoked two types of action potential discharge: transient (no more than 1-2 spikes-rapidly adapting neurons) and sustained firing (number of spikes increasing linearly above threshold-slowly adapting neurons) (FIG. 2A2). Transient spikers SGNs represented the majority of neurons in our cell cultures (80% versus 20% of sustained spikers neurons).

human H3 receptor = molecular target: T1, human H3 receptor (Homo sapiens, UniProt Q9Y5N1); conditions: radioligand binding; cited from earlier work
T1 construct: expressed in transfected cells; host or cells: SK-N-MC or HEK293 T
T1 sequence (Q9Y5N1 whole entry): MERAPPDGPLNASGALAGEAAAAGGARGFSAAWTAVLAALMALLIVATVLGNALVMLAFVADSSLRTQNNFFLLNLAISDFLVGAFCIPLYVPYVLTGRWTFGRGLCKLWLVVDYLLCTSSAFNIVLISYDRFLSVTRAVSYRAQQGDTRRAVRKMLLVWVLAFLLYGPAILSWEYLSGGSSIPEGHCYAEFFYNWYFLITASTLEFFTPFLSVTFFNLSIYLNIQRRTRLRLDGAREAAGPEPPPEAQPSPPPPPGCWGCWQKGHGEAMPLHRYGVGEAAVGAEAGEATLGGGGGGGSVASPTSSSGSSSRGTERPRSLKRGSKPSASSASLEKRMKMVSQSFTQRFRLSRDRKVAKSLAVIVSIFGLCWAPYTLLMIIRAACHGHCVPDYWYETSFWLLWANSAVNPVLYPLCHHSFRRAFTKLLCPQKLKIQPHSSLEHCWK

SMILES	GPIAS values [1]	spontaneous (synaptically driven) action potential discharge [2]	inhibition at 0.1 µM ([3]; sustained SGNs)	inhibition at 100 µM ([3]; sustained SGNs)	resting membrane potential, difference versus control ([3]; sustained SGNs)	resting membrane potential, increase versus control ([3]; sustained SGNs, high concentration (100 μM))	amplitude of the first spike [3]	frequency of spikes and amplitude of the first spike [3]	Kd (human H3 receptor)
CN1CCN(C(=O)c2nc3cc(Cl)ccc3[nH]2)CC1 [JNJ10191584, 1-[(5-chloro-1H-benzimidazol-2-yl)carbonyl]-4-methylpiperazine]	Increase	fully abolished	25.2 ± 2%	46.2 ± 12%	−0.13±0.4 mV	1.5±1 mV	83.7±5.2 mV	unaffected	
CNCCc1cnc[nH]1 [[^3H]N-a-methyl histamine]									1 nM
CN1CCN(C(=O)c2cc3cc(Cl)ccc3[nH]2)CC1 [JNJ7777120, 1-[(5-chloro-1H-indol-2-yl)carbonyl]-4-methylpiperazine]	Increase		21.6 ± 1.7%	69 ± 8%	0.55±0.2 mV		73.3±6.1 mV	unaffected	
